Structures can show the parent of a compound that is named as a salt.
Legend:
[1] = test system: 19 small cell lung cancer cell lines; experiment: Cell response to LSD1 inhibition: compound potency determination in SCLC cell line panel; type: cell-based; settings: 4 days culture
Description: The compound potency determination was performed by culturing 19 small cell lung cancer cell lines […] for 4 days at 37 degrees C. at 5% CO2 in humidified incubators in the presence of serially diluted (trans)-N1-((1R,2S)-2-phenylcyclopropyl)cyclohexane-1,4-diamine bis-hydrochloride.
As a positive control for cytotoxicity the Hsp90 inhibitor 17-N-allylamino-17-demethoxygeldanamycin (17-AAG, a geldanamycin analogue) was used as positive control in serial dilution. Each of the cell lines was propagated and tested in distinct optimized media as recommended by ATCC or cell line source.
Small cell lung cancer cell lines can be categorized as “classic” or “variant”, based on their enzymatic activities, cellular morphologies, and growth phenotypes (Desmond et al., Cancer Res (1985) 45(6):2913-2923; Shoemaker R. H., Nature Reviews Cancer […] 6:813-823). Classic cells lines express elevated levels of L-dopa decarboxylase, bombesin-like immunoreactivity, neuron-specific enolase, and the brain isozyme of creatine kinase; variant cell lines continue to express neuron-specific enolase and the brain isozyme of creatine kinase, but have undetectable levels of L-dopa decarboxylase and bombesin-like immunoreactivity. Unlike classic cell lines, some variant cell lines are amplified for and have increased expression of the c-myc (MYC)oncogene.
Depending on their responses to (trans)-N1-((1R,2S)-2-phenylcyclopropyl)cyclohexane-1,4-diamine bis-hydrochloride, cell lines are classified as either “sensitive” [5], defined as having EC50<0.05 μM, or “resistant”, defined as having EC50>=0.05 μM [R].

[2] = test system: H510A xenograft; experiment: In vivo tumor growth inhibition, NCI-H510A xenograft model; set-up: species or system athymic nude mice; settings: 40 μg per kg five days on/two days off, after 21 days of dosing, compared to untreated controls
Description: 7-8-week old athymic nude mice animals were injected with 5×10^6 H510A cells resuspended in 100 μL of 1:1 mixture of Matrigel® matrix (Corning Inc., Tewksbury/MA, C. S. Hughes et al., Proteomics (2010) 10(9):1886-90) and PBS. Tumors were staged at 200-300 mm^3 animals and distributed into dosing groups. (trans)-N1-((1R,2S)-2-phenylcyclopropyl)cyclohexane-1,4-diamine was administered at a dose of 40 μg per kg (upk) five days on/two days off until end of study. Tumor volume was measure biweekly using a digital caliber. The study was concluded when mean tumor volume within control group reached 2000 mm^3 or 28 days post-staging. Statistical analysis was performed using unpaired t-test.

Compound | Cell-based response, classic versus variant SCLC cell lines ([1]; p-value 0.0055) | variant cell lines [V] that are resistant ([1]; resistant = EC50>=0.05 μM) | classic cell lines [C] that are sensitive ([1]; sensitive = EC50<0.05 μM) | tumor growth inhibition [2] [%]
N[C@H]1CC[C@H](N[C@@H]2C[C@H]2c2ccccc2)CC1 [(trans)-N1-((1R,2S)-2-phenylcyclopropyl)cyclohexane-1,4-diamine bis-hydrochloride] | greater in classic SCLC cell lines compared to variant SCLC cell lines | 7 out of 8 | 9 out of 11 | 
N[C@H]1CC[C@H](N[C@@H]2C[C@H]2c2ccccc2)CC1 [(trans)-N1-((1R,2S)-2-phenylcyclopropyl)cyclohexane-1,4-diamine] |  |  |  | 34

Reference: patent publication US20190153538A1, “GENE EXPRESSION BIOMARKERS FOR PERSONALIZED CANCER CARE TO EPIGENETIC MODIFYING AGENTS” (Oryzon Genomics, S.A., priority 2015, published 2019)
